# Literature values as cited in patent US20230167447A1, “Compositions for FNIP1/FNIP2 Gene Modulation and Methods Thereof” (Genetic Intelligence, Inc, priority 2021, published 2023).
# Tested on: ALS patients
smiles,measurement,value
"CC1=NN(c2ccccc2)C(=O)C1 [Edaravone, edaravone]",decline in physical function in ALS patients,slows the decline in physical function
same,subset of patients for which effective,around 7%
